Measurements reported in ChEMBL document CHEMBL3243982, “Synthesis of pyrimido[5,4-c]quinolines and related quinolines as potential antimalarials” (J Med Chem, 1978).
Active and inactive are the calls of the source. The rule behind the calls is not given here.

Tests used:
Plasmodium gallinaceum = assay: Antimalarial activity against Plasmodium gallinaceum at 320 mg/kg by sporozoite-induced chick test; format: functional, organism-based; design: dose 320 mg/kg
Plasmodium berghei = assay: Antimalarial activity against blood-induced Plasmodium berghei infected in mouse at 640 mg/kg; format: functional, organism-based; design: dose 640 mg/kg

Compound | Activity (Plasmodium gallinaceum) | Activity (Plasmodium berghei)
CCN1Cc2c(/C=C/c3ccccc3)nc3ccc(OC)cc3c2N(c2cccc(Cl)c2)C1 | inactive | inactive
CCNCc1c(C)nc2ccc(OC)cc2c1Nc1cccc(Cl)c1 | – | inactive
CCN(CC)Cc1c(C)[nH]c2cc(Cl)ccc2c1=O | – | inactive
CCN1Cc2c(C)nc3ccc(OC)cc3c2N(c2cccc(Cl)c2)C1 | – | inactive
CCNCc1c(C)[nH]c2ccc(OC)cc2c1=O | – | inactive
CCNCc1c(C)[nH]c2ccc(C)cc2c1=O | – | inactive
CCN1Cc2c(C)nc3ccc(C)cc3c2N(c2cccc(Cl)c2)C1 | – | inactive
